Source: ChEMBL document CHEMBL1121806, “Inhibition of the renin-angiotensin system. A new approach to the therapy of hypertension” (J Med Chem, 1981)
Starred links: 1 amine or outer side, 2 acyl side, 3 side chain; linkers in the order of their positions; H or OH if unused. Non-standard residues stand in square brackets, D forms with d. Residues, ends and D or L forms follow the SMILES beside them. ξ: configuration not given here. *: point of attachment. Sta(3ξ) = CC(C)C[C@H](N[*:1])C(O)CC(=O)[*:2]; Isovaleryl = CC(C)CC(=O)*

T1: Renin (Homo sapiens, UniProt P00797)
T1 sequence (P00797 whole entry): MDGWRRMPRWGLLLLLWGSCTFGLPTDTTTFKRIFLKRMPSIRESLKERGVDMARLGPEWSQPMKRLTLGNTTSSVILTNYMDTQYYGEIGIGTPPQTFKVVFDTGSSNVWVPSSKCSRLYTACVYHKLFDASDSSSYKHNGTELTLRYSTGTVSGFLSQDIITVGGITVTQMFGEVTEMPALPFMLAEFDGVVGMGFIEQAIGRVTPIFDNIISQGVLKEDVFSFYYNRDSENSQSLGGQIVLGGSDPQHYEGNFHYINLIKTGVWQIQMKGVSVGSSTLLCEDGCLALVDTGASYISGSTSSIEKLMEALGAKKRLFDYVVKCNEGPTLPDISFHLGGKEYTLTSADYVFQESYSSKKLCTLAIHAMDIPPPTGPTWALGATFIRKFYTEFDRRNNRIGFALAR


Key:
[1] = target: T1, Renin; experiment: Antihypertensive activity against human renin
[2] = substrate: CC[C@H](C)[C@H](NC(=O)[C@H](Cc1ccc(O)cc1)NC(=O)[C@@H](NC(=O)[C@H](CCCN=C(N)N)NC(=O)[C@@H](N)CC(=O)O)C(C)C)C(=O)N[C@@H](Cc1c[nH]cn1)C(=O)N1CCC[C@H]1C(=O)N[C@@H](Cc1ccccc1)C(=O)N[C@@H](Cc1c[nH]cn1)C(=O)N[C@@H](CC(C)C)C(=O)O; experiment: The compound was tested for its antihypertensive activity against human renin; format: functional

Molecule	Ki [1] [nM]	Km [2] [µM]
CC(C)C[C@H](NC(=O)[C@H](Cc1cnc[nH]1)NC(=O)[C@H](Cc1ccccc1)NC(=O)[C@H]1CCCN1C(=O)[C@H](Cc1cnc[nH]1)NC(=O)[C@H]1CCCN1)C(=O)N[C@@H](Cc1ccccc1)C(=O)N[C@H](C(=O)N[C@@H](Cc1ccc(O)cc1)C(=O)O)C(C)C	4000	–
CC(C)[C@H](NC(=O)[C@H](Cc1ccccc1)NC(=O)[C@H](Cc1ccccc1)NC(=O)[C@H](Cc1c[nH]cn1)NC(=O)[C@H](Cc1ccccc1)NC(=O)[C@H]1CCCN1C(=O)[C@H](Cc1c[nH]cn1)NC(=O)[C@H]1CCCN1)C(=O)N[C@@H](Cc1ccc(O)cc1)C(=O)O	1000	–
C[C@H](NP(=O)(O)Oc1ccccc1)C(=O)N1CCC[C@H]1C(=O)O	1	–
C[C@H](NC(CCc1ccccc1)C(=O)O)C(=O)N1CCC[C@H]1C(=O)O (some centres undefined)	1.2	–
H-EWPRPQIPP-OH	800	–
C[C@H](CCC(=O)O)C(=O)N1CCC[C@H]1C(=O)O	800	–
C[C@H](CC(=O)O)C(=O)N1CCC[C@H]1C(=O)O	2500	–
CC(C)CC(=O)N[C@H](C(=O)N[C@H](C(=O)N[C@@H](CC(C)C)C(O)CC(=O)N[C@@H](C)C(=O)N[C@@H](CC(C)C)C(O)CC(=O)N[C@@H](CCCN=C(N)N)C(=O)O)C(C)C)C(C)C (some centres undefined) (Isovaleryl-VV[Sta(3ξ)]A[Sta(3ξ)]R-OH)	100	–
C[C@@H](NC(=O)[C@H](Cc1ccccc1)NP(=O)(O)Oc1ccccc1)C(=O)O	2200	–
CC(C)C[C@H](NC(=O)[C@H](Cc1cnc[nH]1)NC(=O)[C@H](Cc1ccccc1)NC(=O)[C@H]1CCCN1C(=O)[C@H](Cc1cnc[nH]1)NC(=O)[C@H]1CCCN1)C(=O)N[C@@H](CC(C)C)C(=O)N[C@H](C(=O)N[C@@H](Cc1ccc(O)cc1)C(=O)O)C(C)C	42000	–
C[C@H](CC(=O)NO)C(=O)N1CCC[C@H]1C(=O)O	600	–
COC(=O)[C@H](CCCN=C(N)N)NC(=O)CC(O)[C@H](CC(C)C)NC(=O)[C@H](C)NC(=O)CC(O)[C@H](CC(C)C)NC(=O)[C@@H](NC(=O)[C@@H](NC(=O)CC(C)C)C(C)C)C(C)C (some centres undefined) (Isovaleryl-VV[Sta(3ξ)]A[Sta(3ξ)]R-OMe)	300	–
C[C@H](CS)C(=O)N1CCC[C@H]1C(=O)O [CAPTOPRIL]	1.7	–
Renin (Homo sapiens), P00797 (protein) MDGWRRMPRWGLLLLLWGSCTFGLPTDTTTFKRIFLKRMPSIRESLKERGVDMARLGPEWSQPMKRLTLGNTTSSVILTNYMDTQYYGEIGIGTPPQTFKVVFDTGSSNVWVPSSKCSRLYTACVYHKLFDASDSSSYKHNGTELTLRYSTGTVSGFLSQDIITVGGITVTQMFGEVTEMPALPFMLAEFDGVVGMGFIEQAIGRVTPIFDNIISQGVLKEDVFSFYYNRDSENSQSLGGQIVLGGSDPQHYEGNFHYINLIKTGVWQIQMKGVSVGSSTLLCEDGCLALVDTGASYISGSTSSIEKLMEALGAKKRLFDYVVKCNEGPTLPDISFHLGGKEYTLTSADYVFQESYSSKKLCTLAIHAMDIPPPTGPTWALGATFIRKFYTEFDRRNNRIGFALAR	–	50
